33 compounds from patent publication US9725442B2, “Heterocyclic derivative having PGD2 receptor antagonist activity” (Shionogi & Co., Ltd., priority 2011, dated 2017) can be followed below.

Read-outs that look alike come from different tables or passages of the source.

One assay addresses CRTH2 (Homo sapiens (Human), UniProt Q9Y5Y4). Kind of assay: CRTH2 receptor binding inhibitory activity ([3H]-PGD2 displacement, membranes of CRTH2-expressing K562 cell). The conditions noted are these: [3H]-PGD2 displacement, membrane of CRTH2-expressing K562 cell, read-out: Ki. The method, boiled down: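 CRTH2-expressing K562 membranes (20 μg/well) in 50 mM Tris/HCl pH 7.4 with 10 mM MgCl2 were incubated with [3H]-PGD2 for 60 min at room temperature, then filtered.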

For a further assay, the target named is Human DP1 receptor (Homo sapiens (Human), UniProt Q13258). Kind of assay: Human DP1 inhibitory activity in DP1-expressing cell (PGD2-induced cAMP). Format: cell-based. As to the method:
Compounds were categorized as AA (cAMP is less than 100 nM) and A (cAMP is more than 100 nM and less than 5000 nM) as shown in Table 99 and 100.

Setting [1] is: CRTH2 receptor binding, categorized AAAA/AAA.
The mark [2] stands for this setting: category of cAMP IC50, human DP1 receptor expressing Jurkut cell.

Sequence of CRTH2 (Q9Y5Y4 whole entry): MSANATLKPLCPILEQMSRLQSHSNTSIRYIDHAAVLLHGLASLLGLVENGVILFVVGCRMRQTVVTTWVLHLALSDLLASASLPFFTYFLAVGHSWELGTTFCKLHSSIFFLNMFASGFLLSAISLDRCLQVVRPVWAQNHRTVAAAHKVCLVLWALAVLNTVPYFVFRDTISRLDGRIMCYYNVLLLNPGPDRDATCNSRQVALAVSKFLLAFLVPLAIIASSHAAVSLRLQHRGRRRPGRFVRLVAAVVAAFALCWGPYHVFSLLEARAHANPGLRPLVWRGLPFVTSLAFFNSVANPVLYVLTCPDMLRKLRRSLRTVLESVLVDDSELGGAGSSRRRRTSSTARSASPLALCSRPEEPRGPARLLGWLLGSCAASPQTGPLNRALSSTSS
Sequence of Human DP1 receptor (Q13258 whole entry): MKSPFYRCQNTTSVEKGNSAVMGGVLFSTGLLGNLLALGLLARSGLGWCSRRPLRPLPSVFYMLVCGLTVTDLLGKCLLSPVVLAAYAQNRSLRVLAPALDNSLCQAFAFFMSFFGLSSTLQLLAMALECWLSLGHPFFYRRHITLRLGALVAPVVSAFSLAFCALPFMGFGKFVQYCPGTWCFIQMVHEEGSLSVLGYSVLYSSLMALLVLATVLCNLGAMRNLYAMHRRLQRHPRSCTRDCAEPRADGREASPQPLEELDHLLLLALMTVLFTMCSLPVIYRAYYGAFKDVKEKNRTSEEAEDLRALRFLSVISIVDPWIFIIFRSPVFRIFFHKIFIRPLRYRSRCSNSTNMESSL

Take `C[C@@H]1CN(S(=O)(=O)c2ccc(OC(F)F)cc2)C[C@@H]1n1nc(CC(=O)O)c2ccc(Cl)cc21` [Compound I-134]: the Ki on CRTH2 (setting [1]) was under 100 nM. This compound came in with a concentration for half-maximal inhibition (IC50) against Human DP1 receptor (setting [2]) of under 100 nM.
Take `CC(C)Oc1ccc(S(=O)(=O)N2C[C@@H](C)[C@@H](n3nc(CC(=O)O)c4ccc(Cl)cc43)C2)cc1` [Compound I-135]: the Ki on CRTH2 (setting [1]) is under 100 nM. This compound registered an IC50 against Human DP1 receptor (setting [2]) of under 100 nM.
As for `C[C@H]1CN(S(=O)(=O)c2ccc(OC(F)F)cc2)C[C@H]1n1nc(CC(=O)O)c2ccc(F)cc21` [Compound I-136], the Ki at CRTH2 (setting [1]) fell in the range of 100 to 5000 nM. Besides, the IC50 on Human DP1 receptor (setting [2]) was in the range of 100 to 5000 nM.
`CCOc1ccc(S(=O)(=O)N2C[C@@H](C)[C@@H](n3nc(CC(=O)O)c4ccc(Cl)cc43)C2)cc1` [Compound I-137]: the Ki on CRTH2 (setting [1]) was under 100 nM. In addition, the IC50 at Human DP1 receptor (setting [2]) was under 100 nM.
In the case of `CC(C)Oc1ccc(S(=O)(=O)N2C[C@@H](C)[C@@H](n3nc(CC(=O)NS(C)(=O)=O)c4ccc(F)cc43)C2)cc1` [Compound I-138], the values for the inhibition constant (Ki) on CRTH2 (setting [1]) and on CRTH2 were under 100 nM and 65 nM, respectively. For the same compound, at Human DP1 receptor (setting [2]), the IC50 lay in the range of 100 to 5000 nM.
For the compound `CC(C)Oc1ccc(S(=O)(=O)N2C[C@@H](C)[C@@H](n3nc(CC(=O)NC#N)c4ccc(F)cc43)C2)cc1` [Compound I-139], the inhibition constant Ki at CRTH2 (setting [1]) is under 100 nM; on CRTH2 it was 32 nM. The IC50 against Human DP1 receptor (setting [2]) was under 100 nM.
Turning to `COc1ccc(S(=O)(=O)N2C[C@@H](C)[C@@H](n3nc(CC(=O)O)c4ccc(Cl)cc43)C2)cc1` [Compound I-140], at CRTH2 (setting [1]), the Ki was under 100 nM. Besides, the half-maximal inhibitory concentration (IC50) on Human DP1 receptor (setting [2]) was under 100 nM.
Turning to `CCc1ccc(S(=O)(=O)N2C[C@@H](C)[C@@H](n3nc(CC(=O)O)c4ccc(Cl)cc43)C2)cc1` [Compound I-141], the Ki on CRTH2 (setting [1]) is under 100 nM. The concentration for half-maximal inhibition (IC50) against Human DP1 receptor (setting [2]) was under 100 nM.
With `CCOc1ccc(S(=O)(=O)N2C[C@@H](C)[C@@H](n3nc(CC(=O)O)c4ccc(Cl)cc43)C2)cn1` [Compound I-143], on CRTH2 (setting [1]), the Ki was under 100 nM. The compound further displayed an IC50 against Human DP1 receptor (setting [2]) of under 100 nM.
As to `CC(C)Oc1ccc(S(=O)(=O)N2C[C@@H](C)[C@@H](n3nc(CC(=O)O)c4cccnc43)C2)cc1` [Compound I-145], the Ki at CRTH2 (setting [1]) was under 100 nM; at CRTH2, 3.1 nM. Further, on Human DP1 receptor (setting [2]), the IC50 lay in the range of 100 to 5000 nM.
For the compound `CC(C)Oc1ccc(S(=O)(=O)N2C[C@@H](C)[C@@H](n3nc(CC(=O)O)c4ccc(Cl)cc43)C2)cn1` [Compound I-146], the Ki on CRTH2 (setting [1]) is under 100 nM. Besides, the IC50 against Human DP1 receptor (setting [2]) is under 100 nM.
Take `CCOc1ccc(S(=O)(=O)N2C[C@@H](C)[C@@H](n3nc(CC(=O)O)c4ccc(F)cc43)C2)c(F)c1` [Compound I-147]: the inhibitory constant (Ki) on CRTH2 (setting [1]) is under 100 nM. The compound further gave an IC50 against Human DP1 receptor (setting [2]) of under 100 nM.
As to `CC(C)Oc1ccc(S(=O)(=O)N2C[C@@H](C)[C@@H](n3cc(CC(=O)O)c4cccnc43)C2)cc1` [Compound I-148], the Ki on CRTH2 (setting [1]) was under 100 nM; on CRTH2, 5.6 nM. Besides, the IC50 at Human DP1 receptor (setting [2]) lay in the range of 100 to 5000 nM.
On the same counts, the results for `CC(C)Oc1ccc(S(=O)(=O)N2C[C@@H](C)[C@@H](n3nc(CC(=O)O)c4ccc(F)cc43)C2)nc1` [Compound I-149] are under 100 nM, 4.8 nM and 100 to 5000 nM.
On to `CCCCOc1ccc(S(=O)(=O)N2C[C@@H](C)[C@@H](n3nc(CC(=O)O)c4ccccc43)C2)cc1` [Compound I-151], for which the Ki on CRTH2 (setting [1]) was under 100 nM. This compound also showed a concentration for half-maximal inhibition (IC50) against Human DP1 receptor (setting [2]) of under 100 nM.
As to `C[C@@H]1CN(S(=O)(=O)c2cc3ccccc3s2)C[C@@H]1n1nc(CC(=O)O)c2ccccc21` [Compound I-152], the Ki on CRTH2 (setting [1]) is under 100 nM; at CRTH2 it was 56 nM. The IC50 on Human DP1 receptor (setting [2]) was 100 to 5000 nM.
On the same counts, the results for `CC1Cc2cc(S(=O)(=O)N3C[C@@H](C)[C@@H](n4nc(CC(=O)O)c5ccccc54)C3)ccc2O1` (some centres unmarked) [Compound I-153] are under 100 nM, 65 nM and under 100 nM.
For `CCOc1ccc(S(=O)(=O)N2C[C@@H](n3nc(CC(=O)O)c4ccc(F)cc43)[C@@H](C)[C@@H]2C#N)cc1` [Compound I-155], on CRTH2 (setting [1]), the Ki was 100 to 5000 nM. At Human DP1 receptor (setting [2]), the 50% inhibitory concentration (IC50) was in the range of 100 to 5000 nM.
For the compound `CC(C)Oc1ccc(S(=O)(=O)N2C[C@@H](C)[C@@H](n3nc(Cc4nnn[nH]4)c4ccc(F)cc43)C2)cc1` [Compound I-157], the Ki at CRTH2 (setting [1]) was 100 to 5000 nM; on CRTH2 it was 270 nM. Also, on Human DP1 receptor (setting [2]), the IC50 lay in the range of 100 to 5000 nM.
As to `C[C@]1(O)CN(S(=O)(=O)c2ccc(F)cc2)C[C@@H]1n1nc(CC(=O)O)c2ccccc21` [Compound I-158], the Ki at CRTH2 (setting [1]) is under 100 nM. The half-maximal inhibitory concentration (IC50) on Human DP1 receptor (setting [2]) was in the range of 100 to 5000 nM.
Regarding `CCOc1ccc(S(=O)(=O)N2C[C@@H](C)[C@@H](n3nc(CC(=O)O)c4cc(C#N)ccc43)C2)cc1` [Compound I-160], at CRTH2 (setting [1]), the Ki lay within 100 to 5000 nM. Also, the IC50 against Human DP1 receptor (setting [2]) is under 100 nM.
For `CCOc1ccc(S(=O)(=O)N2C[C@@H](C)[C@@H](n3nc(CC(=O)O)c4cc(Cl)ccc43)C2)cc1` [Compound I-161], in that order: 100 to 5000 nM and under 100 nM.
On the same counts, the results for `CCOc1ccc(S(=O)(=O)N2C[C@@H](C)[C@@H](n3nc(CC(=O)O)c4cc(Cl)ccc43)C2)cn1` [Compound I-162] are 100 to 5000 nM and under 100 nM.
For `CC(C)Oc1ccc(S(=O)(=O)N2C[C@@H](C)[C@@H](n3nc(CC(=O)O)c4cc(Cl)ccc43)C2)cc1` [Compound I-163], in that order: 100 to 5000 nM and under 100 nM.
With `CC(C)Oc1ccc(S(=O)(=O)N2C[C@@H](C)[C@@H](n3nc(CC(=O)O)c4cc(C#N)c(F)cc43)C2)cc1` [Compound I-167], the Ki at CRTH2 (setting [1]) is 100 to 5000 nM. Moreover, at Human DP1 receptor (setting [2]), the IC50 was under 100 nM.
On the same counts, the results for `CCOc1ncc(S(=O)(=O)N2C[C@@H](C)[C@@H](n3nc(CC(=O)O)c4ccccc43)C2)s1` [Compound I-168] are under 100 nM and under 100 nM.
For the compound `CCOc1ccc(S(=O)(=O)N2C[C@@H](C)[C@@H](n3nc(CC(=O)O)c4ccc(F)cc43)C2)s1` [Compound I-169], the Ki on CRTH2 (setting [1]) is under 100 nM. The same compound registered a concentration for half-maximal inhibition (IC50) against Human DP1 receptor (setting [2]) of under 100 nM.
Consider `CCOc1ncc(S(=O)(=O)N2C[C@@H](C)[C@@H](n3nc(CC(=O)O)c4ccc(C)cc43)C2)s1` [Compound I-170], for which the Ki at CRTH2 (setting [1]) was under 100 nM. On Human DP1 receptor (setting [2]), the half-maximal inhibitory concentration (IC50) is under 100 nM.
Regarding `CCOc1ccc(S(=O)(=O)N2C[C@@H](C)[C@@H](n3nc(CC(=O)O)c4ccc(C)cc43)C2)s1` [Compound I-171], the inhibition constant Ki at CRTH2 (setting [1]) was under 100 nM. At Human DP1 receptor (setting [2]), the concentration for half-maximal inhibition (IC50) is under 100 nM.
As for `CCOc1ccc(S(=O)(=O)N2C[C@@H](C)[C@@H](n3nc(CC(=O)O)c4ccc(C#N)cc43)C2)cc1` [Compound I-172], the inhibition constant Ki on CRTH2 (setting [1]) is under 100 nM. This compound also registered an IC50 against Human DP1 receptor (setting [2]) of under 100 nM.
As to `CCOc1ccc(S(=O)(=O)N2C[C@@H](C)[C@@H](n3nc(CC(=O)O)c4ccc(C#N)cc43)C2)cn1` [Compound I-173], the figures for the Ki on CRTH2 (setting [1]) and on CRTH2 were under 100 nM and 11 nM, respectively. Further, the IC50 against Human DP1 receptor (setting [2]) is 100 to 5000 nM.
As for `CC(C)Oc1ccc(S(=O)(=O)N2C[C@@H](C)[C@@H](n3nc(CC(=O)O)c4cc5c(cc43)OCO5)C2)cc1` [Compound I-174], the Ki at CRTH2 (setting [1]) is under 100 nM; at CRTH2, 50 nM. The half-maximal inhibitory concentration (IC50) against Human DP1 receptor (IC50 of PGD2 (60 nM)-induced cAMP increase, human DP1 receptor expressing Jurkut cell) was 99 nM; on Human DP1 receptor (setting [2]) it was under 100 nM.
`CCOc1ccc(S(=O)(=O)N2C[C@@H](C)[C@@H](n3nc(CC(=O)O)c4cc5c(cc43)OCO5)C2)cc1` [Compound I-175]: the inhibition constant Ki on CRTH2 (setting [1]) is under 100 nM. Moreover, the IC50 on Human DP1 receptor (setting [2]) lay in the range of 100 to 5000 nM.
